{"source": "ChEMBL document CHEMBL6182898", "about": "“Design, synthesis and bioevaluation of novel hydrazide derivatives as enhancers of immunotherapy and DNA-damage response in antitumor therapy” (Eur J Med Chem, 2025)", "key": {"[1]": {"experiment": "Half life in male Sprague-Dawley rat at 2 mg/kg, iv measured for 0.083 to 12 hrs by LC-MS/MS analysis", "assay_type": "ADME, organism-based", "details": "in vivo, time 0.083-12 hrs"}, "[2]": {"experiment": "Apparent volume of distribution in male Sprague-Dawley rat at 2 mg/kg, iv measured for 0.083 to 12 hrs by LC-MS/MS analysis", "assay_type": "ADME, organism-based", "details": "in vivo, time 0.083-12 hrs, read-out: Vz"}, "[3]": {"experiment": "Toxicity in male C57BL/6J mouse implanted with mouse B16-F10 cells assessed as body weight change at 25 mg/kg, IG treated for 14 days consecutively in presence of NP-19", "assay_type": "organism-based", "details": "in vivo, po, 336 h, time 14 day"}, "[4]": {"system": "4T1", "experiment": "Induction of DNA damage in mouse 4T1 cells implanted in mouse assessed as increase in gamma-H2AX level at 50 mg/kg/day by immunofluorescence based analysis", "assay_type": "functional, organism-based"}, "[5]": {"system": "4T1", "experiment": "Synergistic induction of DNA damage in mouse 4T1 cells implanted in mouse assessed as decrease in PARP level at 25 mg/kg/day in presence of olaparib by IHC analysis", "assay_type": "functional, organism-based"}}, "note": "Active and inactive are the calls of the source. No cut-off for these calls is given here."}
{"smiles": "CCCNNC(=O)CCCCCCNC(=O)c1cnc(-c2ccc(NC(=O)OC(C)(C)C)cc2)s1", "values": [{"measurement": "half-life", "setting": "[1]", "value": 2.21, "unit": "h"}, {"measurement": "Vd", "setting": "[2]", "value": 10.6, "unit": "L/kg"}, {"measurement": "Activity", "setting": "[3]", "value": "Non-toxic"}, {"measurement": "Activity", "setting": "[4]", "value": "Active"}, {"measurement": "Activity", "setting": "[5]", "value": "Active"}]}
